Test system: male Wistar rats
Assay: Pulmonary paracellular permeability to 125I labelled human serum albumin after intratracheal Pseudomonas aeruginosa LPS
Format: in vivo, rat
Method: Pulmonary permeability was measured by means of a tracer, ^125I -labelled human serum albumin which, after intratracheal infusion, was determined in urine, plasma, lung tissue and bronchoalveolar lavage fluid.
For this experiment, three groups of 6 male Wistar rats (200-225 g) were pretreated either with ML-7 by the IP route (3 mg/kg then 1 mg/kg 3 times a day for 48 h) or the vehicle (ethanol 10%). One hour after the next-to-last administration of ML-7, under urethane anesthesia ([…] IP), a slow intratracheal infusion of 150 μl of an iso-osmolar solution (5% bovine albumin +PBS) containing the tracer and containing (2 groups) or not containing (control group) LPS (1 μg/rat) was given.
Four hours after the intratracheal infusion, urine, blood, bronchoalveolar lavage (BAL) and lungs were harvested and ^125I radioactivity was measured on each sample.

## O=S(=O)(c1cccc2c(I)cccc12)N1CCCNCC1 [ML-7, 1-(5-iodonaphtalene-1-sulfonyl)-1H-hexahydro-1,4-diazepine]
ML-7 pretreatment IP 3 mg/kg then 1 mg/kg 3 times a day for 48 h
  LPS-induced increase in pulmonary permeability: inhibited
Inferred from unchanged plasma radioactivity
  effect on vascular endothelial cells (endothelium permeability, tone, pulmonary circulating hemodynamics): does not present effect

From patent publication US20030125321A1, “Methods and compositions for treating respiratory pathologies” (priority 2001, published 2003)
